Reference: ChEMBL document CHEMBL4480411, “Discovery of Second Generation RORγ Inhibitors Composed of an Azole Scaffold” (J Med Chem, 2019)

Molecular target: T1, Nuclear receptor ROR-gamma (Homo sapiens, UniProt P51449)
T1 sequence (P51449 whole entry): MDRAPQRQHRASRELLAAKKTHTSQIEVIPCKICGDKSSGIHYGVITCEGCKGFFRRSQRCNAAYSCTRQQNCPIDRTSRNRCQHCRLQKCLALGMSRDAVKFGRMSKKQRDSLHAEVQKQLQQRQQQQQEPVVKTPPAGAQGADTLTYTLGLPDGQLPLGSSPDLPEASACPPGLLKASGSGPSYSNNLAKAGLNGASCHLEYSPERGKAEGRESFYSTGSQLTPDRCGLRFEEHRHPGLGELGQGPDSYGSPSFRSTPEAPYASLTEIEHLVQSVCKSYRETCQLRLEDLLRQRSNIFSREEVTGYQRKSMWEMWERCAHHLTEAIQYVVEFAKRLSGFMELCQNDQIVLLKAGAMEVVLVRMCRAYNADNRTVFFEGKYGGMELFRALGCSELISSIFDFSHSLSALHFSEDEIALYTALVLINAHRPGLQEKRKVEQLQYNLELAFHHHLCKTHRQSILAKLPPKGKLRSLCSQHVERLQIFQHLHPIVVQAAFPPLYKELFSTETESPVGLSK
Assay: Inhibition of human GAL4-fused RORgamma LBD transcriptional activity expressed in CHOK1 cells after 2 days by luciferase reporter gene assay
Format: cell-based

CC(C)(C)Cc1cc(-c2onc([C@@H](CCC(=O)[O-])CC(=O)Nc3ccc(Cl)cc3Cl)c2C2CC2)no1.[Na+]
EC50: 9 nM
